Measured values reported in patent EP0069448A1, “Fungicidal amide derivatives” (IMPERIAL CHEMICAL INDUSTRIES PLC, priority 1981, dated 1983).

Key:
Format in all cases: in vivo
[1] = system: Candida albicans and Trichophyton mentagrophytes var. quinkeanum; experiment: Oral antifungal test in oestradiol-treated female mice inoculated vaginally and on the back; conditions: 168 h, oral dosing twice on day 0 and once daily on days 1-4, skin lesions scored and vaginal samples cultured on day 7, read-out: minimum effective dose (MED)
Procedure: The following Monday (day 0) they are clipped on the back and then dosed orally with test compounds. They are then inoculated with Candida albicans in the vagina and Trichophyton mentagrophytes var. quinkeanum on the back, and then given a second dose of the same compound. Dosing is repeated once daily on days 1-4. On day 7 skin lesions are scored visually and vaginal samples taken for culture on agar. Groups of 5 mice are used and compounds are dosed initially at a level of 250mg./kg. The dose is then reduced sequentially until a minimum effective dose (MED) is found. The MED for 2,2-bis(4-chlorophenyl)-3-(1,2,4-triazol-1-yl)propionamide in this test was 5mg. per kg.

[2] = system: CERCOSPORA ARACHIDICOLA (PEANUT); experiment: Foliar fungal disease test on plants (spray and root drench); conditions: 100 ppm active ingredient spray, root drench approximately 40 ppm a.i./dry soil; applied one or two days before inoculation
Procedure: (§1) The compound of Example 1 was tested against a variety of foliar fungal diseases of plants. The technique employed was as follows:- The plants were grown in John Innes Potting Compost (No. 1 or 2) in 4 cm diameter minipots. A layer of fine sand was placed at the bottom of the pots containing the dicotyledonous plants to facilitate uptake of test compound by the roots. The test compound was formulated either by bead milling with aqueous Dispersol T or as a solution of acetone or acetone/ethanol which was diluted to the required concentration immediately before use. For the foliage diseases, suspensions (100 ppm active ingredient) were sprayed on to the […]. Exceptions to this were the tests on Botrytis cinerea, Plasmopara viticola and venturia inaequalis. The sprays were applied to maximum retention and the root drenches to a final concentration equivalent to approximately 40 ppm a.i./dry soil. Tween 20, to give a final concentration of 0.05%, was added when the sprays were applied to cereals. For most of the tests the compound was applied to the soil (roots) and the foliage (by spraying) one or two days before the plant was inoculated with the diseases. An exception was the test on Erysiphe graminis in which the plants were inoculated 24 hours before treatment. After inoculation, the plants were put into an appropriate environment to allow infection to take place and The disease control was recorded by the following grading:- [table]

[3] = system: ERYSIPHE GRAMINIS (BARLEY); experiment: as above; conditions: 100 ppm active ingredient spray, root drench approximately 40 ppm a.i./dry soil; plants inoculated 24 hours before treatment
Procedure: as §1

[4] = system: PUCCINIA RECONDITA (WHEAT); experiment: as above; conditions: 100 ppm active ingredient spray, root drench approximately 40 ppm a.i./dry soil; applied one or two days before inoculation
Procedure: as §1

[5] = system: VENTURIA INAEQUALIS (APPLE); experiment: as above; conditions: 100 ppm active ingredient; Venturia inaequalis named as an exception to the combined spray and soil application; applied one or two days before inoculation
Procedure: as §1

NC(=O)C(Cn1cncn1)(c1ccc(Cl)cc1)c1ccc(Cl)cc1 [Example 1, 2,2-bis(4-chlorophenyl)-3-(1,2,4-triazol-1-yl)propionamide]
minimal effective dose [1]: 5 mg/kg | disease control grading, CERCOSPORA ARACHIDICOLA (PEANUT) [2]: 2 | disease control grading, ERYSIPHE GRAMINIS (BARLEY) [3]: 4 | disease control grading, PUCCINIA RECONDITA (WHEAT) [4]: 1 | disease control grading, VENTURIA INAEQUALIS (APPLE) [5]: 3
